Results from PubChem BioAssay AID248 (DTP/NCI, 2004).
Where “and” joins values, the source holds several entries; their conditions need not be identical. Equal entries are not always repeated. Toxic doses and inconclusive results are not listed. No stated cut-off is given here; in the data, active means T/C of 150% or more; inactive means T/C below 125%.

Tested on: L1210 leukemia ip in BDF1 mice, survival T/C
Assay: NCI In Vivo Anticancer Drug Screen. Data for tumor model L1210 Leukemia (intraperitoneal) in B6D2F1 (BDF1) mice
Settings: endpoint: mean survival time, higher = longer survival
Outline: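 Each compound was tested against a transplantable tumor grown in mice. The endpoint was survival, with treated animals benchmarked against vehicle controls as a simple ratio.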

[1] = dose: 400.0 mg/kg/injection, schedule: Q04DX002 (ip), vehicle: saline with Tween-80
[2] = dose: 100.0 mg/kg/injection, schedule: Q01DX001 (ip), vehicle: carboxymethylcellulose (CMC)
[3] = dose: 200.0 mg/kg/injection, schedule: Q01DX001 (ip), vehicle: carboxymethylcellulose (CMC)
[4] = dose: 400.0 mg/kg/injection, schedule: Q01DX001 (ip), vehicle: carboxymethylcellulose (CMC)
[5] = dose: 100.0 mg/kg/injection, schedule: Q04DX003 (ip), vehicle: saline with Tween-80
[6] = dose: 100.0 mg/kg/injection, schedule: Q04DX003 (ip), vehicle: saline
[7] = dose: 200.0 mg/kg/injection, schedule: Q04DX003 (ip), vehicle: saline

Measured: T/C

O=[N+]([O-])/C=C/C(Cl)(Cl)Cl
inactive: dose: 6.25 mg/kg/injection, schedule: Q01DX009 (ip), vehicle: Klucel (hydroxypropylcellulose) (HPC) 101 % of control | dose: 12.5 mg/kg/injection, schedule: Q01DX009 (ip), vehicle: Klucel (hydroxypropylcellulose) (HPC) 108 % of control | dose: 25.0 mg/kg/injection, schedule: Q01DX009 (ip), vehicle: Klucel (hydroxypropylcellulose) (HPC) 97 % of control | dose: 50.0 mg/kg/injection, schedule: Q01DX009 (ip), vehicle: Klucel (hydroxypropylcellulose) (HPC) 95 % of control

Nc1ccc(-c2ccc(N)cc2I)c(I)c1
inactive: dose: 25.6 mg/kg/injection, schedule: Q04DX002 (ip), vehicle: saline with Tween-80 100 % of control | dose: 64.0 mg/kg/injection, schedule: Q04DX002 (ip), vehicle: saline with Tween-80 95 % of control | dose: 160.0 mg/kg/injection, schedule: Q04DX002 (ip), vehicle: saline with Tween-80 100 % of control | [1] 103 % of control

CCC(C)C(=O)Nc1ccc(Cl)c(Cl)c1 (stereo not drawn)
inactive: dose: 100.0 mg/kg/injection, schedule: Q01DX001 (ip), vehicle: Klucel (hydroxypropylcellulose) (HPC) 108 % of control | dose: 200.0 mg/kg/injection, schedule: Q01DX001 (ip), vehicle: Klucel (hydroxypropylcellulose) (HPC) 95 % of control | dose: 222.0 mg/kg/injection, schedule: Q01DX Z (ip), vehicle: methylcellulose (MC) 90 % of control | dose: 333.0 mg/kg/injection, schedule: Q01DX Z (ip), vehicle: methylcellulose (MC) 102 % of control | dose: 400.0 mg/kg/injection, schedule: Q01DX001 (ip), vehicle: Klucel (hydroxypropylcellulose) (HPC) 95 % of control | dose: 500.0 mg/kg/injection, schedule: Q01DX Z (ip), vehicle: methylcellulose (MC) 96 % of control

CC(C)CSC(SCC(C)C)C(O)C(O)C(O)CO (stereo not drawn)
inactive: dose: 75.0 mg/kg/injection, schedule: Q01DX001 (ip), vehicle: carboxymethylcellulose (CMC) 98 % of control | dose: 150.0 mg/kg/injection, schedule: Q01DX001 (ip), vehicle: carboxymethylcellulose (CMC) 109 % of control | dose: 300.0 mg/kg/injection, schedule: Q01DX001 (ip), vehicle: carboxymethylcellulose (CMC) 97 % of control

CCOC(=O)CC(C(=O)O)=C(c1ccccc1)c1ccccc1
inactive: dose: 50.0 mg/kg/injection, schedule: Q01DX001 (ip), vehicle: carboxymethylcellulose (CMC) 98 % of control | [2] 98 % of control | [3] 93 % of control | [4] 93 % of control

N#CCc1ccc(-c2ccccc2)cc1
inactive: dose: 12.5 mg/kg/injection, schedule: Q01DX009 (ip), vehicle: saline with Tween-80 103 % of control | dose: 25.0 mg/kg/injection, schedule: Q01DX009 (ip), vehicle: saline with Tween-80 95 % of control | dose: 50.0 mg/kg/injection, schedule: Q01DX009 (ip), vehicle: saline with Tween-80 94 % of control | dose: 50.0 mg/kg/injection, schedule: Q04DX003 (ip), vehicle: saline with Tween-80 97 % of control | [2] 100 % of control | [5] 93 % of control | [3] 100 % of control | [4] 93 % of control

CN(C(=O)c1ccncc1)c1ccccc1
inactive: dose: 50.0 mg/kg/injection, schedule: Q01DX009 (ip), vehicle: carboxymethylcellulose (CMC) 93 % of control and 98 % of control | dose: 50.0 mg/kg/injection, schedule: Q04DX002 (ip), vehicle: carboxymethylcellulose (CMC) 95 % of control and 100 % of control | dose: 50.0 mg/kg/injection, schedule: Q04DX003 (ip), vehicle: carboxymethylcellulose (CMC) 95 % of control | dose: 100.0 mg/kg/injection, schedule: Q01DX009 (ip), vehicle: carboxymethylcellulose (CMC) 98 % of control and 90 % of control | dose: 100.0 mg/kg/injection, schedule: Q04DX002 (ip), vehicle: carboxymethylcellulose (CMC) 100 % of control (2×) and 106 % of control | dose: 100.0 mg/kg/injection, schedule: Q04DX003 (ip), vehicle: carboxymethylcellulose (CMC) 97 % of control | dose: 200.0 mg/kg/injection, schedule: Q01DX009 (ip), vehicle: carboxymethylcellulose (CMC) 90 % of control and 91 % of control | dose: 200.0 mg/kg/injection, schedule: Q04DX002 (ip), vehicle: carboxymethylcellulose (CMC) 97 % of control (2×) and 98 % of control | dose: 200.0 mg/kg/injection, schedule: Q04DX003 (ip), vehicle: carboxymethylcellulose (CMC) 98 % of control | dose: 400.0 mg/kg/injection, schedule: Q04DX002 (ip), vehicle: carboxymethylcellulose (CMC) 93 % of control

CCCOCCOCCOC(C)Oc1ccc(OC)cc1 (stereo not drawn)
inactive: dose: 100.0 mg/kg/injection, schedule: Q04DX002 (ip), vehicle: saline 92 % of control | dose: 200.0 mg/kg/injection, schedule: Q04DX002 (ip), vehicle: saline 101 % of control

CCCCOc1ccc(NC(=O)CCl)cc1
inactive: [5] 89 % of control

OC(c1ccccc1)c1ccccc1
inactive: [6] 95 % of control | [7] 100 % of control | dose: 400.0 mg/kg/injection, schedule: Q04DX003 (ip), vehicle: saline 97 % of control

OC1C2CCN(CC2)C1CNC12CC3CC(CC(C3)C1)C2 (stereo not drawn)
inactive: [6] 97 % of control | [7] 96 % of control

CCCCCCCCC1OC1CCCCCCCC(N)=O (stereo not drawn)
inactive: dose: 100.0 mg/kg/injection, schedule: Q04DX002 (ip), vehicle: saline with Tween-80 92 % of control | dose: 200.0 mg/kg/injection, schedule: Q04DX002 (ip), vehicle: saline with Tween-80 88 % of control | [1] 100 % of control

CC1CN1C(=O)c1cc(C(=O)N2CC2C)cc(C(=O)N2CC2C)c1 (stereo not drawn)
inactive: dose: 15.0 mg/kg/injection, schedule: Q01DX001 (ip), vehicle: saline 102 % of control | dose: 15.0 mg/kg/injection, schedule: Q04DX003 (ip), vehicle: saline 98 % of control | dose: 30.0 mg/kg/injection, schedule: Q01DX001 (ip), vehicle: saline 105 % of control | dose: 30.0 mg/kg/injection, schedule: Q04DX003 (ip), vehicle: saline 98 % of control | dose: 60.0 mg/kg/injection, schedule: Q01DX001 (ip), vehicle: saline 102 % of control | dose: 60.0 mg/kg/injection, schedule: Q04DX003 (ip), vehicle: saline 102 % of control

N=C(N)c1ccc(OCCCOc2ccc(C(=N)N)cc2Br)c(Br)c1
inactive: dose: 6.25 mg/kg/injection, schedule: Q01DX009 (ip), vehicle: saline 100 % of control | dose: 6.25 mg/kg/injection, schedule: Q04DX003 (ip), vehicle: saline 99 % of control | dose: 12.5 mg/kg/injection, schedule: Q01DX009 (ip), vehicle: saline 115 % of control | dose: 12.5 mg/kg/injection, schedule: Q04DX003 (ip), vehicle: saline 99 % of control | dose: 16.5 mg/kg/injection, schedule: Q01DX009 (ip), vehicle: saline 123 % of control | dose: 18.0 mg/kg/injection, schedule: Q01DX Z (ip), vehicle: methylcellulose (MC) 110 % of control | dose: 25.0 mg/kg/injection, schedule: Q04DX003 (ip), vehicle: saline 92 % of control | dose: 27.0 mg/kg/injection, schedule: Q01DX Z (ip), vehicle: methylcellulose (MC) 113 % of control | dose: 37.5 mg/kg/injection, schedule: Q01DX009 (ip), vehicle: saline 107 % of control | dose: 40.0 mg/kg/injection, schedule: Q01DX Z (ip), vehicle: methylcellulose (MC) 103 % of control | dose: 60.0 mg/kg/injection, schedule: Q01DX Z (ip), vehicle: methylcellulose (MC) 113 % of control

O=C1CCN(CCN2CCC(=O)NC2=S)C(=S)N1
inactive: dose: 100.0 mg/kg/injection, schedule: Q04DX002 (ip), vehicle: gum acacia 94 % of control | dose: 200.0 mg/kg/injection, schedule: Q04DX002 (ip), vehicle: gum acacia 91 % of control | dose: 400.0 mg/kg/injection, schedule: Q04DX002 (ip), vehicle: gum acacia 97 % of control

COc1ccc(/C=N/N=C(N)N)cc1S(=O)(=O)O
inactive: dose: 15.0 mg/kg/injection, schedule: Q01DX Z (ip), vehicle: saline 95 % of control | dose: 30.0 mg/kg/injection, schedule: Q01DX Z (ip), vehicle: saline 90 % of control | dose: 60.0 mg/kg/injection, schedule: Q01DX Z (ip), vehicle: saline 88 % of control | dose: 60.0 mg/kg/injection, schedule: Q01DX Z (oral), vehicle: saline 95 % of control | dose: 120.0 mg/kg/injection, schedule: Q01DX Z (ip), vehicle: saline 92 % of control | dose: 120.0 mg/kg/injection, schedule: Q01DX Z (oral), vehicle: saline 97 % of control | dose: 240.0 mg/kg/injection, schedule: Q01DX Z (oral), vehicle: saline 97 % of control | dose: 480.0 mg/kg/injection, schedule: Q01DX Z (oral), vehicle: saline 98 % of control
